Tested on: MV-4-11 cells
Test: Gene expression microarray analysis (Affymetrix PrimeView) and GSEA
Assay type: cell-based, human
Set-up: RFU PODN (11730768_x_at) / Fold change /veh PODN (11730768_x_at) / RFU LINC00158 (11744669_a_at) / Fold change /veh LINC00158 (11744669_a_at) / RFU DUSP10 (11751237_a_at) / Fold change /veh DUSP10 (11751237_a_at) / RFU ID3 (11757404_x_at) / Fold change /veh ID3 (11757404_x_at) / RFU PLEKHG5 (11737974_s_at) / Fold change /veh PLEKHG5 (11737974_s_at) / RFU LRRC4B (11730491_at) / Fold change /veh LRRC4B (11730491_at) / RFU GIMAP4 (11747438_a_at) / Fold change /veh GIMAP4 (11747438_a_at) / RFU KRT8 (11758183_x_at) / Fold change /veh KRT8 (11758183_x_at) / RFU CNN1 (11734310_a_at) / Fold change /veh CNN1 (11734310_a_at) / RFU VPS37D (11726825_at) / Fold change /veh VPS37D (11726825_at) / RFU C10orf10 (11716522_x_at) / Fold change /veh C10orf10 (11716522_x_at) / RFU KIR2DL2 /// KIR2DL4 /// KIR2DL5A /// KIR2DL5B /// KIR2DS1 /// KIR2DS2 /// KIR2DS3 /// KIR2DS4 /// KIR3DL3 /// KIR3DL3 /// KIR3DS1 (11738374_at) / Fold change /veh KIR2DL2 /// KIR2DL4 /// KIR2DL5A /// KIR2DL5B /// KIR2DS1 /// KIR2DS2 /// KIR2DS3 /// KIR2DS4 /// KIR3DL3 /// KIR3DL3 /// KIR3DS1 (11738374_at) / RFU C1QL1 (11718748_at) / Fold change /veh C1QL1 (11718748_at) / RFU TMPRSS4 (11747572_a_at) / Fold change /veh TMPRSS4 (11747572_a_at) / RFU HAMP (11756126_x_at) / Fold change /veh HAMP (11756126_x_at) / RFU RNFT2 (11725882_a_at) / Fold change /veh RNFT2 (11725882_a_at) / RFU NR4A2 (11747474_a_at) / Fold change /veh NR4A2 (11747474_a_at) / RFU ABCC12 (11746883_a_at) / Fold change /veh ABCC12 (11746883_a_at) / RFU TMEM136 (11760407_x_at) / Fold change /veh TMEM136 (11760407_x_at) / RFU CLDN22 /// WWC2 (11732394_at) / Fold change /veh CLDN22 /// WWC2 (11732394_at) / RFU HLA-DPB1 (11760878_x_at) / Fold change /veh HLA-DPB1 (11760878_x_at) / RFU SPINT1 (11716480_a_at) / Fold change /veh SPINT1 (11716480_a_at) / RFU GAP43 (11754022_s_at) / Fold change /veh GAP43 (11754022_s_at) / RFU A4GNT (11735810_at) / Fold change /veh A4GNT (11735810_at) / RFU PRB3 (11715151_x_at) / Fold change /veh PRB3 (11715151_x_at) / RFU TUBB4B (11761932_at) / Fold change /veh TUBB4B (11761932_at) / RFU CAPN14 (11732068_a_at) / Fold change /veh CAPN14 (11732068_a_at) / RFU TMCC2 (11721928_a_at) / Fold change /veh TMCC2 (11721928_a_at) / RFU IRGQ (11745062_a_at) / Fold change /veh IRGQ (11745062_a_at) / RFU FAM174B (11720279_a_at) / Fold change /veh FAM174B (11720279_a_at) / RFU TMPRSS4 (11748680_a_at) / Fold change /veh TMPRSS4 (11748680_a_at) / RFU FAM212B (11763350_a_at) / Fold change /veh FAM212B (11763350_a_at) / RFU PLEKHG5 (11743358_a_at) / Fold change /veh PLEKHG5 (11743358_a_at) / RFU ZSCAN30 (11745921_a_at) / Fold change /veh ZSCAN30 (11745921_a_at) / RFU CMKLR1 (11741424_a_at) / Fold change /veh CMKLR1 (11741424_a_at) / RFU LOC101060620 /// MAPK8IP1 (11723275_at) / Fold change /veh LOC101060620 /// MAPK8IP1 (11723275_at) / RFU SPTSSB (11747773_x_at) / Fold change /veh SPTSSB (11747773_x_at) / RFU PRSS12 (11739890_at) / Fold change /veh PRSS12 (11739890_at) / RFU BIN1 (11741810_x_at) / Fold change /veh BIN1 (11741810_x_at) / RFU WNT11 (11732464_a_at) / Fold change /veh WNT11 (11732464_a_at) / RFU C10orf10 (11716521_a_at) / Fold change /veh C10orf10 (11716521_a_at) / RFU C5orf56 (11738089_at) / Fold change /veh C5orf56 (11738089_at) / RFU CYB561 (11721691_x_at) / Fold change /veh CYB561 (11721691_x_at) / RFU ANKRD19P (11752326_a_at) / Fold change /veh ANKRD19P (11752326_a_at) / RFU OR2T12 /// OR2T33 /// OR2T8 (11738714_s_at) / Fold change /veh OR2T12 /// OR2T33 /// OR2T8 (11738714_s_at) / RFU VCAN (11748164_a_at) / Fold change /veh VCAN (11748164_a_at) / RFU JSRP1 (11732532_at) / Fold change /veh JSRP1 (11732532_at) / RFU KRTAP10-11 (11738290_x_at) / Fold change /veh KRTAP10-11 (11738290_x_at) / RFU MYO3A (11730013_a_at) / Fold change /veh MYO3A (11730013_a_at) / RFU EBF3 (11725865_a_at) / Fold change /veh EBF3 (11725865_a_at) / RFU CAMK2N1 (11719241_x_at) / Fold change /veh CAMK2N1 (11719241_x_at) / RFU C5orf56 (11738088_a_at) / Fold change /veh C5orf56 (11738088_a_at) / RFU OLFML3 (11715873_a_at) / Fold change /veh OLFML3 (11715873_a_at) / RFU LOC100653217 /// NTM (11731650_a_at) / Fold change /veh LOC100653217 /// NTM (11731650_a_at) / RFU MAPK11 (11762145_a_at) / Fold change /veh MAPK11 (11762145_a_at) / RFU FIZ1 (11724087_x_at) / Fold change /veh FIZ1 (11724087_x_at) / RFU OASL (11726364_x_at) / Fold change /veh OASL (11726364_x_at) / RFU SOX15 (11748057_x_at) / Fold change /veh SOX15 (11748057_x_at) / RFU CD79A (11719716_a_at) / Fold change /veh CD79A (11719716_a_at) / RFU HIST1H1D (11736915_at) / Fold change /veh HIST1H1D (11736915_at) / RFU CASKIN2 (11723855_a_at) / Fold change /veh CASKIN2 (11723855_a_at) / RFU LOC730098 (11760151_x_at) / Fold change /veh LOC730098 (11760151_x_at) / RFU OR4N2 (11742367_at) / Fold change /veh OR4N2 (11742367_at) / RFU PRRT2 (11749266_a_at) / Fold change /veh PRRT2 (11749266_a_at) / RFU SNX32 (11753110_a_at) / Fold change /veh SNX32 (11753110_a_at) / RFU CDHR5 (11726645_a_at) / Fold change /veh CDHR5 (11726645_a_at) / RFU RCAN1 (11760418_a_at) / Fold change /veh RCAN1 (11760418_a_at) / RFU FAM167A (11723789_a_at) / Fold change /veh FAM167A (11723789_a_at) / RFU FAM26E (11764081_at) / Fold change /veh FAM26E (11764081_at) / RFU ISYNA1 (11749810_s_at) / Fold change /veh ISYNA1 (11749810_s_at) / RFU ACY1 (11761880_at) / Fold change /veh ACY1 (11761880_at) / RFU 11764098_at / Fold change /veh 11764098_at / RFU SAMD14 (11745864_x_at) / Fold change /veh SAMD14 (11745864_x_at) / RFU NPB (11741838_a_at) / Fold change /veh NPB (11741838_a_at) / RFU TMPRSS6 (11731388_a_at) / Fold change /veh TMPRSS6 (11731388_a_at) / RFU KRTAP10-2 (11738614_at) / Fold change /veh KRTAP10-2 (11738614_at) / RFU ARHGAP8 /// PRR5-ARHGAP8 (11727945_x_at) / Fold change /veh ARHGAP8 /// PRR5-ARHGAP8 (11727945_x_at) / RFU KRTAP5-7 /// NADSYN1 (11734609_at) / Fold change /veh KRTAP5-7 /// NADSYN1 (11734609_at) / RFU RASL12 (11751679_a_at) / Fold change /veh RASL12 (11751679_a_at) / RFU CDKN2B (11736163_a_at) / Fold change /veh CDKN2B (11736163_a_at) / RFU PRF1 (11729649_at) / Fold change /veh PRF1 (11729649_at) / RFU, ZNF638 /// ZNF638-IT1 / Fold change vs veh, ZNF638 /// ZNF638-IT1 / RFU, PANK3 / Fold change vs veh, PANK3 / RFU, SH3YL1 / Fold change vs veh, SH3YL1 / RFU, ZEB2 / Fold change vs veh, ZEB2 / RFU, NRIP1 / Fold change vs veh, NRIP1 / RFU, PTTG1IP / Fold change vs veh, PTTG1IP / RFU, CAPN2 / Fold change vs veh, CAPN2 / RFU, MED14 / Fold change vs veh, MED14 / RFU, SNORA58 / Fold change vs veh, SNORA58 / RFU, C1orf63 / Fold change vs veh, C1orf63 / RFU, LRRFIP1 / Fold change vs veh, LRRFIP1 / RFU, NDUFAF7 / Fold change vs veh, NDUFAF7 / RFU, SLC12A2 / Fold change vs veh, SLC12A2 / RFU, IBTK / Fold change vs veh, IBTK / RFU, ESF1 / Fold change vs veh, ESF1 / Fold change vs veh, TMEM50B / RFU, TAOK1 / Fold change vs veh, TAOK1 / RFU, ACBD3 / Fold change vs veh, ACBD3 / RFU, TMA16 / Fold change vs veh, TMA16 / RFU, RWDD3 / Fold change vs veh, RWDD3 / RFU, BCAT1 / Fold change vs veh, BCAT1 / RFU, EDEM3 / Fold change vs veh, EDEM3 / RFU, TMEM33 / Fold change vs veh, TMEM33 / RFU, WDR75 / Fold change vs veh, WDR75 / RFU, AHCTF1 / Fold change vs veh, AHCTF1 / RFU, TFRC / Fold change vs veh, TFRC / RFU, ZDHHC17 / Fold change vs veh, ZDHHC17 / RFU, NOM1 / Fold change vs veh, NOM1 / RFU, ARL8B / Fold change vs veh, ARL8B / RFU, ZBTB11 / Fold change vs veh, ZBTB11 / RFU, TAMM41 / Fold change vs veh, TAMM41 / RFU, KIAA1704 /// LOC100996395 / Fold change vs veh, KIAA1704 /// LOC100996395 / RFU, ING1 / Fold change vs veh, ING1 / RFU, TRMT61B / Fold change vs veh, TRMT61B / RFU, FUBP3 / Fold change vs veh, FUBP3 / RFU, TP53 / Fold change vs veh, TP53 / RFU, TNKS2 / Fold change vs veh, TNKS2 / RFU, ZFP14 / Fold change vs veh, ZFP14 / RFU, ACTR2 / Fold change vs veh, ACTR2 / RFU, PPP3R1 / Fold change vs veh, PPP3R1 / RFU, PIK3R1 / Fold change vs veh, PIK3R1 / RFU, HNRNPA1 / Fold change vs veh, HNRNPA1 / RFU, RNF170 / Fold change vs veh, RNF170 / RFU, ZNF28 / Fold change vs veh, ZNF28 / RFU, RNGTT / Fold change vs veh, RNGTT / RFU, OGT / Fold change vs veh, OGT / RFU, BRD1 / Fold change vs veh, BRD1 / RFU, MARS / Fold change vs veh, MARS / RFU, ZNF655 / Fold change vs veh, ZNF655 / RFU, FAHD1 / Fold change vs veh, FAHD1 / RFU, BDP1 / Fold change vs veh, BDP1 / RFU, LRRCC1 / Fold change vs veh, LRRCC1 / RFU, ARID1A / Fold change vs veh, ARID1A / RFU, ZNF146 / Fold change vs veh, ZNF146 / RFU, ZNF330 / Fold change vs veh, ZNF330 / RFU, GPN3 / Fold change vs veh, GPN3 / RFU, C9orf123 / Fold change vs veh, C9orf123 / RFU, N4BP2L2 / Fold change vs veh, N4BP2L2 / RFU, ARFIP1 / Fold change vs veh, ARFIP1 / RFU, FAM179B / Fold change vs veh, FAM179B / RFU, BCL10 / Fold change vs veh, BCL10 / RFU, UHRF1BP1L / Fold change vs veh, UHRF1BP1L / RFU, BET1 / Fold change vs veh, BET1 / RFU, CNOT2 / Fold change vs veh, CNOT2 / RFU, ZNF268 / Fold change vs veh, ZNF268 / Fold change vs veh, ZNF507 / RFU, DGCR2 / Fold change vs veh, DGCR2 / RFU, WDSUB1 / Fold change vs veh, WDSUB1 / Fold change vs veh, HSP90B1 /// MIR3652 / RFU, ADSS / Fold change vs veh, ADSS / RFU, GK / Fold change vs veh, GK / RFU, ZNF148 / Fold change vs veh, ZNF148 / RFU, TAF9 / Fold change vs veh, TAF9 / RFU, SLC1A5 / Fold change vs veh, SLC1A5 / RFU, SLMO2 / Fold change vs veh, SLMO2 / RFU, ABCC4 / Fold change vs veh, ABCC4 / RFU, LOC101060439 /// RAP1B / Fold change vs veh, LOC101060439 /// RAP1B / RFU, RFX7 / Fold change vs veh, RFX7 / RFU, GTPBP10 / Fold change vs veh, GTPBP10 / RFU, CNEP1R1 / Fold change vs veh, CNEP1R1 / RFU, BIVM-ERCC5 /// ERCC5 / Fold change vs veh, BIVM-ERCC5 /// ERCC5 / RFU, ILF3 / Fold change vs veh, ILF3 / RFU 11762660_at / Fold change /veh 11762660_at / RFU VCAN (11757783_s_at) / Fold change /veh VCAN (11757783_s_at) / RFU DDX43 (11728927_at) / Fold change /veh DDX43 (11728927_at) / RFU KRT8 (11758188_x_at) / Fold change /veh KRT8 (11758188_x_at) / RFU NKD1 (11759106_at) / Fold change /veh NKD1 (11759106_at) / RFU SRD5A1 (11742802_a_at) / Fold change /veh SRD5A1 (11742802_a_at) / RFU TPSAB1 /// TPSB2 (11721975_s_at) / Fold change /veh TPSAB1 /// TPSB2 (11721975_s_at) / RFU GSTM3 (11746129_a_at) / Fold change /veh GSTM3 (11746129_a_at) / RFU IL23R (11737362_x_at) / Fold change /veh IL23R (11737362_x_at) / RFU TMEM51 (11727254_a_at) / Fold change /veh TMEM51 (11727254_a_at) / RFU PIWIL2 (11732686_x_at) / Fold change /veh PIWIL2 (11732686_x_at) / RFU ORM1 (11744905_x_at) / Fold change /veh ORM1 (11744905_x_at) / RFU CCDC152 (11743942_at) / Fold change /veh CCDC152 (11743942_at) / RFU ECM1 (11717891_a_at) / Fold change /veh ECM1 (11717891_a_at) / RFU IL23R (11748794_a_at) / Fold change /veh IL23R (11748794_a_at) / RFU TNFAIP8L3 (11732012_x_at) / Fold change /veh TNFAIP8L3 (11732012_x_at) / RFU MBOAT4 (11741988_at) / Fold change /veh MBOAT4 (11741988_at) / RFU 11764193_at / Fold change /veh 11764193_at / RFU TMEM53 (11763286_at) / Fold change /veh TMEM53 (11763286_at) / RFU MAGEB2 (11727129_at) / Fold change /veh MAGEB2 (11727129_at) / RFU TMEM200A (11744735_a_at) / Fold change /veh TMEM200A (11744735_a_at) / RFU CCDC152 (11751479_a_at) / Fold change /veh CCDC152 (11751479_a_at) / RFU FAM211A (11726209_a_at) / Fold change /veh FAM211A (11726209_a_at) / RFU RGS16 (11746705_a_at) / Fold change /veh RGS16 (11746705_a_at) / RFU VCAN (11755009_s_at) / Fold change /veh VCAN (11755009_s_at) / RFU RHOB (11743442_s_at) / Fold change /veh RHOB (11743442_s_at) / RFU RGS16 (11720943_a_at) / Fold change /veh RGS16 (11720943_a_at) / RFU RGS16 (11720944_at) / Fold change /veh RGS16 (11720944_at) / RFU, VPS4B / Fold change vs veh, VPS4B / RFU, CREB1 / Fold change vs veh, CREB1 / RFU, DNAJC13 / Fold change vs veh, DNAJC13 / RFU, GNAQ / Fold change vs veh, GNAQ / RFU, CDK5R1 / Fold change vs veh, CDK5R1 / RFU, ZRANB3 / Fold change vs veh, ZRANB3 / RFU, CUL4A / Fold change vs veh, CUL4A / RFU, CCNY / Fold change vs veh, CCNY / RFU, UFL1 / Fold change vs veh, UFL1 / RFU, COG3 / Fold change vs veh, COG3 / RFU, DIAPH2 / Fold change vs veh, DIAPH2 / RFU, SKA2 / Fold change vs veh, SKA2 / RFU, AFF3 / Fold change vs veh, AFF3 / RFU, LMF1 / Fold change vs veh, LMF1 / RFU, IPO11 / Fold change vs veh, IPO11 / RFU, DFFB / Fold change vs veh, DFFB / RFU, FOXP1 / Fold change vs veh, FOXP1 / RFU, CARD8 / Fold change vs veh, CARD8 / RFU, STRN3 / Fold change vs veh, STRN3 / RFU, ADK / Fold change vs veh, ADK / RFU, RASSF2 / Fold change vs veh, RASSF2 / RFU, WIPF1 / Fold change vs veh, WIPF1 / RFU, LARP1B / Fold change vs veh, LARP1B / RFU, RASA1 / Fold change vs veh, RASA1 / RFU, RB1 / Fold change vs veh, RB1 / RFU, PPFIA1 / Fold change vs veh, PPFIA1 / RFU, MAT2A / Fold change vs veh, MAT2A / RFU, CCT5 / Fold change vs veh, CCT5 / RFU, WDR92 / Fold change vs veh, WDR92 / RFU, CUX1 / Fold change vs veh, CUX1 / RFU, TTC7A / Fold change vs veh, TTC7A / RFU, TMEM135 / Fold change vs veh, TMEM135 / RFU, DEPTOR / Fold change vs veh, DEPTOR / RFU, CPM / Fold change vs veh, CPM / RFU, DNAJB6 / Fold change vs veh, DNAJB6 / RFU, CACNA2D3 / Fold change vs veh, CACNA2D3 / RFU, DTX4 / Fold change vs veh, DTX4 / RFU, TFCP2 / Fold change vs veh, TFCP2 / RFU, GMCL1 /// GMCL1P1 / Fold change vs veh, GMCL1 /// GMCL1P1 / RFU, AEBP2 / Fold change vs veh, AEBP2 / RFU, SNHG1 /// SNORD22 /// SNORD25 /// SNORD26 /// SNORD27 /// SNORD28 /// SNORD29 /// SNORD31 / Fold change vs veh, SNHG1 /// SNORD22 /// SNORD25 /// SNORD26 /// SNORD27 /// SNORD28 /// SNORD29 /// SNORD31 / Fold change (Aza/veh), C12orf56 (ProbeSet 11735607_a_at) / Fold change (ACY-1035/veh), C12orf56 (ProbeSet 11735607_a_at) / Fold change (Aza/veh), FGFR1OP (ProbeSet 11751329_s_at) / Fold change (ACY-1035/veh), FGFR1OP (ProbeSet 11751329_s_at) / Fold change (Aza/veh), VPS36 (ProbeSet 11739960_a_at) / Fold change (ACY-1035/veh), VPS36 (ProbeSet 11739960_a_at) / RFU SYPL1 (11715823_x_at) / Fold change /veh SYPL1 (11715823_x_at) / RFU IGFBP7 (11715501_s_at) / Fold change /veh IGFBP7 (11715501_s_at) / RFU REEP3 (11722064_at) / Fold change /veh REEP3 (11722064_at) / RFU IGLL1 (11728026_x_at) / Fold change /veh IGLL1 (11728026_x_at): dose or concentration left out as unconfirmed
Settings: MV-4-11 cells, 48 hours

`Nc1ccc(-c2cccs2)cc1NC(=O)c1ccc2c(c1)cc(C1CC1)n2CCN1CCOCC1` [ACY-1035] was tested, and the “RFU LOC730098 (11760151_x_at)” value was 35.48 RFU.
